From patent US12226387B2, “Compounds for use in cancer cachexia” (priority 2018, dated 2025)
Like-named read-outs stand apart in the source and are kept apart here.

Experiments:
[1] = test system: pancreatic cancer cachexia; conditions: high amounts of ketone salts; cited from earlier work
C26 tumour-bearing mice [2] = assay: Voluntary wheel running activity; type: in vivo, Male Balb/c mice; conditions: KETex, wheel running on ketone ester diet, mean±SEM
Description: Tumour induction and exercise intervention—On day 12, tumour-xenografts were induced by interscapular injection of 5×10^5 murine colon carcinoma C26 cells dissolved in 100 μl of phosphate-buffered saline (PBS). C26 cell line was cultured in DMEM (Thermo Fisher Scientific, 41965-062) supplemented with 10% foetal bovine serum (FBS), 1% glutamine (Sigma G7513) and 1% penicillin and streptomycin. WT mice were injected with an identical volume of PBS. Twenty four hours before tumour inoculation, WR mice (CONex and KETex) received a running wheel to induce voluntary exercise, as previously reported in Coletti D et al;. Substrains of inbred mice differ in their physical activity as a behavior. Sci World J 2013: 1-7, 2013. Each wheel was supplied with a commercial cycling computer (2Cycle, 81488) to record physical activity parameters (i.e. running time, distance, and speed). Body weight, food intake and wheel running parameters—Body weight was measured every 3 days during the food training period. After tumour induction, body weight was measured at 4-day intervals. Food intake and wheel running parameters were measured daily. Statistical analysis—Data are presented as mean±SEM. […] Mice from the WT groups were not included in the 2-way ANOVA model, but were added as a reference. Differences in wheel running activity were assessed using an unpaired t-test. […]

M. soleus = assay: Ex-vivo muscle contractile properties of M. soleus; type: in vivo, Male Balb/c mice; conditions: on average, KETrest & KETex vs CONrest & CONex, p<0.05
Description: Muscle contractile properties—Ex-vivo muscle contractile properties were assessed as described by Derave W et al; Skeletal muscle properties in a transgenic mouse model for amyotrophic lateral sclerosis: Effects of creatine treatment. Neurobiol Dis 13: 264-272, 2003 and Eijnde B O et al; Effect of muscle creatine content manipulation on contractile properties in mouse muscles. Muscle and Nerve 29: 428-435, 2004.
Mice were anesthetized by an intraperitoneal injection of ketamine-xylazine (10 mg/kg). After dissection of M. soleus and M. extensor digitorum longus (EDL) of both hindlimbs, muscles were mounted vertically on a force transducer (HSE, March-Hugstetten, Germany) and incubated in organ baths containing Krebs-Henseleit solution (118 mM NaCl, 25 mM NaHCO3, 5 mM KCl, 1 mM MgSO4, 1 mM KH2PO4, 2.5 mM CaCl2 and […]). […] Following recovery, resting length (L0) was determined with a micropositioner and an oscilloscope by stimulating the soleus and EDL tetanically for 350 ms at 80 Hz and 120 Hz, respectively, interspersed with 2-min rest intervals. […] Average maximal tension and specific tension (force corrected for muscle cross-sectional area) were calculated for both the twitch and tetanic stimulations. Cross-sectional area was determined by dividing the wet muscle mass by the product of resting muscle length (L0) and the density of mammalian skeletal muscle (1.06 g/cm^3).

C26 tumour-bearing mice [3] = assay: Food intake and body weight of C26 tumour-bearing mice; type: in vivo, Male Balb/c mice; conditions: all experimental groups
Description: General study protocol and dietary interventions—Mice were individually housed and received ad libitum access to standard chow (Ssniff® R/M-H, Soest, Germany) prior to the start of the study. Food intake was registered and body weight was measured daily for 5 days to assess their normal rate of food intake. Following this baseline follow-up period, the mice were matched for body weight and food intake where after they were randomly assigned to five experimental groups: i) C26 tumour-bearing mice at rest on control diet (CONrest), ii) C26-bearing mice at rest on ketone diet (KETrest), iii) C26-bearing mice performing voluntary wheel running (WR) on control diet (CONex), iv) C26-bearing mice performing WR on ketone diet (KETex), and v) healthy mice at rest on control diet (WT). Mice were habituated to their experimental diet by a step-wise change of their food supply.
During the first three days, the mice received both their experimental liquid diet (without the addition of ketones) as well as standard chow. From day 3 to 6, mice received only their experimental liquid diets (i.e. 0% KET or CON diet). […]
Body weight, food intake and wheel running parameters—Body weight was measured every 3 days during the food training period. After tumour induction, body weight was measured at 4-day intervals. Food intake and wheel running parameters were measured daily.

C26 tumour-bearing mice [4] = assay: Survival experiment in C26 tumour-bearing mice on ketone-ester diet; type: in vivo, Male Balb/c mice; conditions: ketone groups (KETrest+KETex) vs control groups, 4.5% ketone ester diet, p<0.01
Description: Animal housing and husbandry—Male Balb/c mice were obtained at 11 weeks of age and housed in polycarbonate cages on a 6:00 am to 6:00 pm light cycle under controlled room temperature (21-23° C.) and humidity (40-60%). Mice were individually housed to allow assessment of individual energy intake and physical activity parameters. Cages contained spruce particles (Lignocel® BK 8/15) bedding, and were changed every three weeks. Enrichment was provided by two cotton pellets, which were replaced during cage changing. Mice received one wooden stick to allow correct wearing off of their teeth while on the liquid diets. Solid food was provided in a recess of the metal wire lid at the top of the cage, whilst liquid diets were provided on a daily basis by means of feeding tubes (Bio-Serv™, catalog #14-726-518). Water was provided by a centralized system with a metal dispenser extending into the cage. All procedures were approved by the Animal Ethics Committee of KU Leuven, Belgium (P093/2017). […]
General study protocol and dietary interventions—Mice were individually housed and received ad libitum access to standard chow (Ssniff® R/M-H, Soest, Germany) prior to the start of the study. Food intake was registered and body weight was measured daily for 5 days to assess their normal rate of food intake. […]

C26 tumour-bearing mice [5] = assay: Muscle weights (TA, QUAD, GAS); type: in vivo, Male Balb/c mice
Description: Behavioural testing and tissue collection experiment—In a second experiment, 9 mice were included in each experimental group and used for behavioural testing and tissue collection. Mice were euthanized 16 days following PBS or tumour cells inoculation. Twenty-four hours before sacrifice the running wheels were removed to eliminate potential acute effects of exercise on variables measured.

[6] = test system: murine colon carcinoma C26 cells; assay: Tumour weights, C26 tumour-xenografts; type: in vivo, Male Balb/c mice; conditions: 16 days after C26 inoculation, KET mice, p<0.05 vs CON, mean±SEM
Description: Tumour induction and exercise intervention—On day 12, tumour-xenografts were induced by interscapular injection of 5×10^5 murine colon carcinoma C26 cells dissolved in 100 μl of phosphate-buffered saline (PBS). C26 cell line was cultured in DMEM (Thermo Fisher Scientific, 41965-062) supplemented with 10% foetal bovine serum (FBS), 1% glutamine (Sigma G7513) and 1% penicillin and streptomycin. WT mice were injected with an identical volume of PBS. Twenty four hours before tumour inoculation, WR mice (CONex and KETex) received a running wheel to induce voluntary exercise, as previously reported in Coletti D et al;. Substrains of inbred mice differ in their physical activity as a behavior. Sci World J 2013: 1-7, 2013. Each wheel was supplied with a commercial cycling computer (2Cycle, 81488) to record physical activity parameters (i.e. running time, distance, and speed). Behavioural testing and tissue collection experiment—In a second experiment, 9 mice were included in each experimental group and used for behavioural testing and tissue collection. Mice were euthanized 16 days following PBS or tumour cells inoculation. Twenty-four hours before sacrifice the running wheels were removed to eliminate potential acute effects of exercise on variables measured.

[7] = Blood metabolite concentrations (βHB, glucose), 1-hr postprandial; type: in vivo, Male Balb/c mice; conditions: at all times
Description: Blood metabolite concentrations-Blood parameters were measured 1-hr postprandial, every 3 days during the food habituation period, and every 4 days from the day of tumour induction. Blood βHB and glucose levels were measured using the Glucomen Lx plus-meter (Menarini Diagnostics, Firenze, Italy) with Lx β-ketone or Lx glucose strips, respectively. The detection limits for p-hydroxybutyrate were 0.1 to 8.0 millimolar (mM). Blood lactate concentrations were assessed using the Lactate-[…] monitoring system (Arkray, Kyoto, Japan). Measurements were performed according to the manufacturer's instructions.

[8] = Blood (R)-3-hydroxybutyrate after oral administration of ester
C26 tumour-bearing mice [9] = assay: Grip strength of forelimbs and hindlimbs; type: in vivo, Male Balb/c mice; conditions: day 16, KETrest & KETex vs CONrest & CONex, p<0.05
Description: Grip strength—Grip strength of both the forelimbs and the hindlimbs was evaluated, at baseline (day 5) and every 4 days starting at tumour induction, by means of a bar and a grid respectively, connected to an isometric force transducer (BIO-GS3 Grip Strength Test, BIOSEB, Pinellas Park, Florida). Mice were lifted by their tail and positioned to grasp the metal bar or grid, and were pulled horizontally until they could no longer hold the grip. Maximal force (g) was registered during five attempts for both the forelimbs and the hindlimbs. Performance was calculated as the average of the three best attempts. Between attempts the mice were returned to their home cage and given a rest period of 3 min.

[10] = in vivo

## CC(=O)CC(=O)[O-].[Li+] [lithium acetoacetate]
[1]
  muscle and body weight loss: inhibition
  tumour growth: Reduced

## C[C@@H](O)CCOC(=O)C[C@@H](C)O [KET, (R)-3-hydroxybutyl-(R)-3-hydroxybutyrate]
C26 tumour-bearing mice [2]
  Av distance/day: 19.78 ± 1.36 km
  Av running speed: 2.94 ± 0.12 km/h
M. soleus
  Peak twitch force of M. soleus higher than in control groups: ~45%
  tetanic force of M. soleus higher than in control groups: ~29%
C26 tumour-bearing mice [3]
  Body weight over time: similarly decreased
C26 tumour-bearing mice [4]
  increase in mean survival time compared to control groups: +40%
  increase in median survival time compared to control groups: +17%
C26 tumour-bearing mice [5]; KET, p<0.05 vs CON, mean±SEM
  Tibialis anterior (TA) weight: 41.6 ± 2.1 mg
C26 tumour-bearing mice [5]; mouse, in vivo
  gastrocnemius (GAS) weights between the groups: similar
C26 tumour-bearing mice [5]; on average
  TA weight higher in KET compared with CON: ~12%
[6]
  tumour weights: 204 ± 32 mg
[7]
  blood glucose levels compared with CON groups: lower
[8]; consumption of a drink
  level of uptake in the gut: surprisingly high
[8]; in vivo
  circulating levels of (R)-3-hydroxybutyrate in the blood: high
  period of raised (R)-3-hydroxybutyrate concentrations compared with ketone salts: longer period
C26 tumour-bearing mice [9]
  forelimb grip strength vs control groups: higher
  hindlimb grip strength vs control groups: higher

## CC(O)CC(=O)[O-].[Na+] (centres unmarked) [sodium hydroxybutyrate]
[1]
  muscle and body weight loss: inhibition
  tumour growth: Reduced

## (R)-3-hydroxybutyrate-glycerol partial ester
[10]
  circulating levels of (R)-3-hydroxybutyrate in the blood: high
  level of uptake in the gut: surprisingly high
